Series [1] deals with U937 myeloid leukemia cell line. Nature of the series: MTT cytotoxicity, U937. In kind it is cell-based, human. To be noted: U937, three days, read-out: EC50 (50% reduction in cell viability). As for the experimental part:
(§1) The cytotoxic activity of various phospho-derivatives of branched-chain fatty acids (DP-BFAs) was assayed in vitro in cell cultures that include normal and malignant cell types. The following cell systems were used: • Primary fibroblasts (human) • Normal bone marrow (BM) cells (mouse) • Primary bronchial epithelial cells (human, from Clonetics, cat. no. CC-2541) • Caco-2—colon cancer cell line (human, ATTC, HTB-37) • C6 glioma cell line (rat, ATCC, CRL-2199) • Neuro2a—neuroblastoma cell line (mouse, ATCC, CCL-131) • SKBR-3—breast cancer cell line (human, ATTC, HTB-30) • HL60—myeloid leukemia cell line (human, ATCC, CCL-240) • U937—myeloid leukemia cell line (human)
(§2) Cells were seeded in a microtiter plate in MEM containing 2 mM L-glutamine, 100 units/ml penicillin, 100 ug/ml streptomycin and 10% FCS at 37° C. The cultured cells were incubated, during their linear growth phase in the absence (control group) or presence of various DP-BFAs as indicated. The final concentrations of the tested DP-BFAs ranged from 1.5 to 200 microMolars. At the end of the incubation period, which was five days for the bone marrow cells and three days for all the other cell lines, the cytotoxic effect of the added P-BFA on the cells was estimated by using the colorimetric MTT assay. The MTT assay (Mosmann (1983) J. Immunol Methods 65: 55–63) measures mitochondrial reductase activity and serves for quantitative assessment of cellular viability. Drug concentration that causes 50% reduction in cell viability in comparison to the control group, is defined as EC50. The EC50 values of the tested DP-BFA compounds were calculated from dose response curves established for each of the different assayed cell lines.
(§3) Each EC50 value is an average of EC50 values derived from 1–5 independent experiments.

Series [2] relates to HL60 myeloid leukemia cell line. Nature of the series: MTT cytotoxicity, HL60. In kind it is cell-based, human. To be noted: HL60, three days, read-out: EC50 (50% reduction in cell viability). As for the experimental part:
as §1, §2, §3

Series [3] has as its system Normal bone marrow (BM) cells. Nature of the series: MTT cytotoxicity, normal bone marrow cells. In kind it is cell-based, mouse. The settings on record: five days, read-out: EC50 (50% reduction in cell viability). The protocol:
as §1, §2, §3

In series [4] the test system is Primary bronchial epithelial cells. Nature of the series: MTT cytotoxicity, normal primary epithelial cells. To be noted: Normal primary epithel, three days, read-out: EC50 (50% reduction in cell viability). In kind it is cell-based, human. The protocol:
as §1, §2, §3

In series [5] the test system is Caco-2 colon cancer cell line. Nature of the series: MTT cytotoxicity, Caco-2. The class given is cell-based, human. To be noted: Caco-2, three days, read-out: EC50 (50% reduction in cell viability). The protocol:
as §1, §2, §3

In series [6] the test system is Neuro2a neuroblastoma cell line. Nature of the series: MTT cytotoxicity, Neuro2a. The class given is cell-based, mouse. The settings on record: three days, read-out: EC50 (50% reduction in cell viability). The protocol:
as §1, §2, §3

Series [7] relates to blood brain barrier (BBB). Nature of the series: BBB permeabilization in rats, Evans blue extravasation into brain. In kind it is in vivo, Sprague-Dawley rats. The settings on record: for MEC (minimal effective concentration): concentration giving 3 μg EB/g brain. The text has this: Permeabilization of the BBB by DP-BFA was investigated in rat model system by monitoring accumulation in the brain of two markers: a) Evans blue dye (EB), which rapidly binds in vivo with albumin (NW 70 kD) and is an indicator for paracellular transport; and b) Fluorescein sodium salt (F—Na), MW 376 D, which is transported via the cellular space, and enables monitoring transcellular transport. Upon BBB disruption the Evans blue-albumin complex irreversibly accumulates in the intercellular space of the brain. The much smaller tracer fluorescein may be transported intracellularly to occupy both inter and intracellular space in the brain.
Blood brain barrier permeabilization in Sprague-Dawley rats was induced by brief exposure to DP-BFA. The animals were anesthetized with Rampun-Imalgen and DP-BFA test compounds were administered via the external carotid artery retrograde to the brain (Smith, Q. R. Methods of study. In: Physiology and Pharmacology of the Blood-Brain Barrier. Ed. Bradbury M. W. B. Spinger-Verlag. Berlin-Heidelberg-NY; 1992: 24–52). The pterygo-palathina artery was ligated to avoid escape of infused solutions towards the external head vasculature. DP-BFA solutions were infused over a period of 30 seconds or half an hour, using a Harvard Apparatus Syringe Pump. Blood flow through carotid communis artery was interrupted only at the time of infusion.
All tested DP-BFA molecules were prepared from stock solutions in either water or ethanol by diluting 200–1000 fold into solution of isosmotic mannitol (5%) in Tromethamine buffer (Sigma) or PBS (pH 7.4)
The markers, Evans blue (EB, 25 mg/ml) and fluorescein (F—Na, 12.5 mg/ml), in 1 ml solution, were injected intravenously immediately following administration of the tested DP-BFA, or after a specific time interval if reversibility of action was investigated. Supportive i.v. infusion of F—Na (12.5 mg/ml–100 μl/min) was performed for 8 minutes. Brains were washed with saline solution (60 ml) 10 min after the intracarotid “flash”. Brain ipsilateral and contralateral hemispheres and tumors, where applicable, were homogenized separately with 50% trichloroacetic acid (TCA). The markers concentrations in the cortex and in tumors, where, applicable, were determined spectrofluorometrically (Uyama, O. et al., (1988) J. Cereb. Blood Flow Metab. 8, 282–284: Abraham et al., (1996) Neurosci. Lett. 208, 85–88). The markers content was calculated as μg marker per one-gram brain tissue. Standard error and Student's test for statistical significance were used.
The experiment was carried out on male Sprague-Dawley rats weighing 250–320 g. The procedure described above in Example 17 was followed.
The effect of the tested compounds on the BBB opening was evaluated by two parameters:
a) efficacy—The degree of BBB opening estimated in terms of accumulation of Evans Blue albumin (μg EB/g brain tissue); and
b) potency—measured in terms of EC50 and minimal effective concentration (MEC) values. EC50 is the concentration of a tested compound producing 50% of the maximal effect of Evans Blue extravasation.
The effect of various DP-BFAs on BBB permeability was tested in the model system of rat brains, as described above in Example 17. Efficacy, namely the level of the BBB opening was expressed as the amount of Evans blue accumulated in the brain (μg EB/g brain). Potency of the tested molecules was estimated by their calculated EC50 and minimal effective concentration (MEC) values.

Series [8] relates to SKBR-3 breast cancer cell line. Nature of the series: MTT cytotoxicity, SKBR-3. The class given is cell-based, human. To be noted: three days, read-out: EC50 (50% reduction in cell viability). The protocol: as §1, §2, §3
The test system of series [9] is blood brain barrier (BBB). Nature of the series: BBB permeability to EB-albumin and Fluorescein in normal rat brains. To be noted: compounds at EC50 (Mannitol 25%); for % EB/g brain: control 0.04 ± 0.01; for Brain fluorescein uptake (% of serum F-Na level): control 0.3 ± 0.08; for Ratio F-Na/EB (mean of individual ratios): control 9.5 ± 1.6. The class given is in vivo. The text has this:
The effect of various DP-BFAs on BBB permeabilization to molecules of different sizes was examined in vivo in the model system of normal rat brains.
The transport of two markers was followed: a) Evans blue bound to albumin (MW 70 kD) as an indicator for paracellular transport; and b) Fluorescein sodium salt (MW 376 D) that represents small size molecules.
The Evans blue dye (EB) and Fluorescein sodium salt (F—Na) were infused into the artery carotis externa over 30 seconds according to the protocol described above in Example 17. The test compounds were used at their EC50 concentrations. Control animals were treated with vehicle solution.
Evans blue extravasation is expressed as the percentage of the total amount of EB accumulated per one gram of brain tissue. The transport of fluorescein into the brain, which is dependent on the serum concentration of this molecule, is presented as percentage of the F—Na level in the serum.

The test system of series [10] is Chinese hamster ovary (CHO) AA8 cell line. Nature of the series: LDH release toxicity assay in cultured CHO AA8 cells. In kind it is cell-based. To be noted: 1 hour incubation, read-out: LC50 (the source's name). The protocol: Various DP-BFA molecules were screened in cultured Chinese hamster ovary (CHO) AA8 cell line in order to establish their toxicity. LC50 values, i.e. the concentrations causing death in 50% of cell population, were calculated from dose response curves. LC50 values of phospho-BFAs were compared to those of the corresponding branched fatty acids (=carbo-BFAs).
Lactate dehydrogenase (LDH) release was used as an assay for the integrity of the cells membrane and, thus, for estimation of toxicity. Cells (2×10^5/ml) were seeded (150 μl/well) in 96 well plates, in RPMI-1640 medium containing 10% FCS. After two days, tested DP-BFA compounds or the control compound myristic acid were added to the plates in declining concentrations ranging from 500 to 1 μg/ml. Cells were harvested after one hour. […] Other controls included, two blank wells and five wells containing cells with no additional drugs. Following centrifugation (1500 rpm, 5 min), 75 μl of the supernatant was transferred to a new plate with 45 μl of an LDH assay mix (Tox-7 kit, Sigma). After 10–20 minutes at room temperature, absorbance was measured using an Elisa Reader 490 nm.
Each experiment was performed in triplicate.

Series [11] can be described thus: Octanol/saline solubility and partition coefficient, shake-flask technique.
Procedure: The lipophilicity values of various derivatives of branched fatty acids were estimated by comparing the solubility of these compounds in organic versus aqueous solutions. Octanol and physiological saline were used, respectively, as the organic and aqueous solutions. The partition coefficient (Pc) value, i.e. the octanol/saline distribution was measured by the shake-flask technique.
Series [12] is classed as in vivo. The settings on record: rats, sodium salt. As for the experimental part: DP-BFA molecules were evaluated for safety and toxicity. Increasing doses of the tested compounds were administered intra-arterially (i.a.) into rats following the protocol described above in Example 17. Animal viability was monitored for 24 hours to evaluate lethal concentrations (LC). LC is defined as the minimal concentration that caused death.
Safety index is defined as the ratio between the lethal dose (LC) and the minimal effective concentration (MEC), wherein MEC corresponds to a calculated concentration of the tested compound that elicits accumulation of three times the amount of Evans blue accumulated in control animals treated with vehicle only, i.e. total accumulation of 3 μg EB. The higher the LC/MEC ratio is, the higher the safety index.

The mark [13] stands for this setting: Table 6, rat brains, Evans blue extravasation, read-out: EQ50 (the source's name).

Like-named read-outs stand apart in the source and are kept apart here.

Turning to 4-Octadecanyl phosphocholine [3,14-PC], the EC50 in [1] is 4 µM; in series [2], 7 µM; in series [3], 160 µM; in [4], 72 µM.
Turning to `CCCCCCCCCCCCC(CCC)C(=O)OCCOP(=O)([O-])[O-].[Na+].[Na+]` (centres unmarked) [3,12-MEG-PO4Na2, 2-(2′-Propyltetradecanoyloxy)ethyl Disodium Phosphate], the EC50 was 75 µM in [1]; greater than 200 µM in series [5]; 60 µM in [6]; 18 ± 3 µM in series [7] (setting [13]); greater than 200 µM in series [8]. Moreover, in [7] (Table 6, at EC50 (Mannitol at 25%)), the “μg EB/g brain (at EC50)” value is 5 ± 1 μg EB/g brain. For the same compound, the “MEC (minimal effective concentration)” value in [7] (Table 6) was 11 ± 2 µM. The “% EB/g brain” value in [9] is 0.8 ± 0.1%. Also, in series [9], the “Brain fluorescein uptake (% of serum F-Na level)” value is 5.0 ± 0.8 % of the F—Na level in the ser. The “Ratio F-Na/EB (mean of individual ratios)” value in series [9] worked out at 8.4 ± 0.9.
Turning to `CCCCCCCCCCCCC(CCC)OP(=O)([O-])[O-].[Na+].[Na+]` (centres unmarked) [3,12-PO4Na2, 4-Hexadecanyl Disodium Phosphate], the EC50 is 90 µM in series [1]; greater than 200 µM in series [5]; 105 µM in [6]; 55 ± 1 µM in series [7] (setting [13]); greater than 200 µM in series [8]. In [10], the CC50 stood at 320 µM. The “μg EB/g brain (at EC50)” value in [7] (Table 6, at EC50 (Mannitol at 25%), listed as 3,12-PO4-Na2) is recorded as 20 ± 3 μg EB/g brain; in [7] (Table 6, at EC50 (Mannitol at 25%), listed as 3,12-PO4—Na2), 20 μg EB/g brain. Also, in [7] (Table 6), the “MEC (minimal effective concentration)” value amounted to 3.3 ± 0.5 µM. Moreover, in series [9], the “% EB/g brain” value is 2.9 ± 0.6%. For the same compound, the “Brain fluorescein uptake (% of serum F-Na level)” value in series [9] is on record as 8.2 ± 0.9 % of the F—Na level in the ser. Also, the “Ratio F-Na/EB (mean of individual ratios)” value in series [9] stood at 5.9 ± 1.0.
Turning to `CCCCCCCCCCCCCCCCCCC(CCC)C(=O)OCCOCCOP(=O)([O-])OCC[N+](C)(C)C` (centres unmarked) [3,18-DEG-PC, 2-(2′-Propyleicosanoyloxy)ethoxyethylphosphocholine], the EC50 in [1] (Homo sapiens, U-937, 72 h) was 6 µM; in series [2] (Homo sapiens, HL-60, 72 h), 13 µM; in [3] (Mus musculus, Bone marrow cell, 120 h) it was 80 µM; in [4] (Homo sapiens, Primary bronchial epithelial cell, 72 h), 60 µM.
With `CCCCCCCC(CCCCCCC)C(=O)[O-].[Na+]` [7,7-Na, reference compound], in series [10], the CC50 is 65 µM. For the same compound, the “μg EB/g brain (at EC50)” value in series [7] (Table 5, at EC50) turned out to be 4.2 ± 0.6 μg EB/g brain. For the same compound, the “MEC (minimal effective concentration)” value in series [7] (Table 5) was 132 ± 19. Moreover, the EC50 in series [7] (Table 5, rat brain, intracarotid infusion, read-out: EC50 (Evans Blue extravasation)) was 184 ± 21 µM. In addition, the MEC in series [7] (Table 8, sodium salt, in µM) was found to be 132 ± 19. Moreover, the “LogPc (octanol-saline partition coefficient)” value in series [11] (octanol/physiological saline, sodium salts) turned out to be 1.33. In addition, the “Water mg/ml (solubility in aqueous solution)” value in series [11] (physiological saline as aqueous solution, sodium salts) is greater than 25 mg/mL. Moreover, the “Octanol mg/ml (solubility in octanol)” value in [11] (sodium salts of the branched fatty acids and their PO4 derivatives) was greater than 50 mg/mL. In addition, the “LC (minimal concentration that caused death)” value in series [12] (i.a., viability monitored 24 hours) worked out at 360 ± 67 µM. Moreover, the “Safety LC/MEC” value in series [12] is 2.7.
Turning to `CCCCCCCC(CCCCCCC)OP(=O)(O)O` [7,7-PO4Na2, 8-Pentadecanyl Disodium Phosphate], in [10], the CC50 came out at 320 µM.

The values above are taken from patent publication US7186703B2, “Derivatives of branched-chain lipophilic molecules and uses thereof” (D-Pharm Ltd., priority 2000, dated 2007).
